From US20030065039A1, “Biologically active 1,3-bis-aromatic-prop-2-en-1-ones, 1,3-bis-aromatic-propan-1-ones, and 1,3-bis-aromatic-prop-2-yn-1-ones” (Statens Serum Institute, priority 1997, published 2003)

What was measured:
[1] = tested on: cytomegalovirus AD-169 strain; test: Activity against cytomegalovirus in HEL cells (plaque formation); assay type: cell-based; conditions: virus plaque formation reduced by 50%, 100 PFU, values given as fractions
Method: (§1) IC50 values are determined by the virus plaque formation and/or the virus cytopathic assay using standard methods well-known in the art.

[2] = tested on: cytomegalovirus Davis strain; test: as above; assay type: cell-based; conditions: virus plaque formation reduced by 50%, 100 PFU, values given as fractions
Method: as §1

[3] = tested on: parasite mitochondrial dehydrogenase; test: Parasite mitochondrial dehydrogenase activity; assay type: biochemical, Leishmania major
[4] = tested on: Leishmania major; test: Respiration of Leishmania major (O2 consumption, CO2 production); assay type: cell-based
[5] = tested on: TNF-α; test: TNF-α in lysate of stimulated human mononuclear cells (ELISA); assay type: cell-based; conditions: cells preincubated with compound, stimulated with SPAG or LPS
Method: (§2) Therefore, experiments were performed to examine the effect of Licochalcone A and SBC-35ma on secretion of TNF-α from the stimulated cells. These experiments included detection of the cytokines in the cell lysate by ELISA and staining of the intracellular cytokines by using monoclonal antibodies against these cytokines and cytokine receptors.

[6] = tested on: IL-6; test: Intracellular cytokine staining in stimulated human mononuclear cells; assay type: cell-based; conditions: 25 μg/ml compound
Method: as §2
(§3) Table 3. Effect of Licochalcone A and SBC-35ma on the presence of intracellur cytokines in the human peripheral blood mononuclear cells stimulated either with a malarial exoantigen SPAG (diluted 1:12.5) or bacterial LPS (diluted 1:1000). The cells were preincubated with 25 μg/ml of each of the compounds for 2 hours and then incubated in the presence of antigens at 37° C. overnight. The cells were permeabilized and then fixed in paraformaldehyde Cytokine specific monoclonal antibodies were used for the detection of positive cells for each cytokine. Data are presented as percentages of positive cells for each cytokine.

[7] = tested on: TNF-α; test: as above; assay type: cell-based; conditions: 25 μg/ml compound
Method: as §2, §3

[8] = tested on: IL-4; test: as above; assay type: cell-based; conditions: 25 μg/ml compound
Method: as §2, §3

[9] = tested on: IL-1α; test: as above; assay type: cell-based; conditions: 25 μg/ml compound, 2 hours preincubation
Method: as §2, §3

[10] = tested on: IL-2; test: as above; assay type: cell-based; conditions: 25 μg/ml compound
Method: as §2, §3

[11] = tested on: IL-1ra; test: as above; assay type: cell-based; conditions: 25 μg/ml compound
Method: as §2, §3

[12] = tested on: IL-1β; test: as above; assay type: cell-based; conditions: 25 μg/ml compound
Method: as §2, §3

[13] = Single dose toxicity in mice; assay type: in vivo
Method: Also in rats, LDlow po>1000 mg/kg was found. Studies carried out later in the project using the dosing schedule, also used to measure effects against the malaria parasites, confirmed the very good oral tolerance to all compounds tested.

[14] = target: SCC (L. major); test: Effect on L. major succinate-cytochrome c reductase; assay type: biochemical, Leishmania major; conditions: incubation at 28° C. for 5 min
Method: FIG. 12. Effect of licochalcone A on Leishmania major succinate-cytochrome c reductase. Membrane rich fraction of parasite was incubated with licochalcone A at 28° C. for 5 min, the remaining enzyme activity was measured. Data are mean ±SEM from 4 different experiments.

**Q.** Which “Antiviral activity IC50, AD-169 strain, Assay 1” value [1] does the source give for `C=CC(C)(C)c1cc(/C=C/C(=O)c2ccc(O)cc2)c(OC)cc1O` [Licochalcone A] here?
**A.** Its value is 1/15000.

**Q.** And the “Antiviral activity IC50, Davis strain, Assay 1” value [2]?
**A.** The value was 1/50000.

**Q.** And the “activity of the parasite mitochondrial dehydrogenase” value [3]?
**A.** Its value is “inhibited the activity of the parasite mitochondrial dehydrogenase”.

**Q.** And the “respiration of the parasite (O2 consumption, CO2 production)” value [4]?
**A.** The value was “inhibited the respiration of the parasite in a concentration-dependent manner”.

**Q.** And the “intracellular TNF-α in the cell lysate (ELISA)” value [5]?
**A.** Its value is “no intracellular TNF-α present”.

**Q.** And the “percentages of positive cells for IL-6” value ([6]; LPS 1:1000, LPS alone 4.3)?
**A.** Its value is 6.7%.

**Q.** And the “percentages of positive cells for IL-6” value ([6]; SPAG 1:12.5, SPAG alone 5.6)?
**A.** The value was 6.2%.

**Q.** And the “percentages of positive cells for TNF-α” value ([7]; LPS 1:1000, LPS alone 0.30)?
**A.** Its value is 0.70%.

**Q.** And the “percentages of positive cells for TNF-α” value ([7]; SPAG 1:12.5, SPAG alone 0.96)?
**A.** The value was 1.0%.

**Q.** What about the “percentages of positive cells for IL-4” value ([8]; LPS 1:1000, LPS alone 0) of the same compound?
**A.** The value was 0%.

**Q.** And the “percentages of positive cells for IL-4” value ([8]; SPAG 1:12.5, SPAG alone 0)?
**A.** The value was 0.69%.

**Q.** What about the “percentages of positive cells for IL-1α” value ([9]; LPS 1:1000, LPS alone 13) of the same compound?
**A.** Its value is 15%.

**Q.** What about the “percentages of positive cells for IL-1α” value ([9]; SPAG 1:12.5, SPAG alone 11) of the same compound?
**A.** The value was 9.1%.

**Q.** What about the “percentages of positive cells for IL-2” value ([10]; LPS 1:1000, LPS alone 2.0) of the same compound?
**A.** The value was 3.6%.

**Q.** What about the “percentages of positive cells for IL-2” value ([10]; SPAG 1:12.5, SPAG alone 3.1) of the same compound?
**A.** The value was 5.2%.

**Q.** And the “percentages of positive cells for IL-1ra” value ([11]; LPS 1:1000, LPS alone 5.1)?
**A.** Its value is 7.6%.

**Q.** What about the “percentages of positive cells for IL-1ra” value ([11]; SPAG 1:12.5, SPAG alone 6.6) of the same compound?
**A.** The value was 2.9%.

**Q.** And the “percentages of positive cells for IL-1β” value ([12]; LPS 1:1000, LPS alone 9.1)?
**A.** Its value is 12%.

**Q.** What about the “percentages of positive cells for IL-1β” value ([12]; SPAG 1:12.5, SPAG alone 13) of the same compound?
**A.** The value was 13%.

**Q.** What about the LDlow po [13] of the same compound?
**A.** The LDlow po was over 1000 mg/kg.

**Q.** What about the IC50 [14] of the same compound?
**A.** Its IC50 is 647.6 μg/mg protein.
